# Laboratory results: US9708328B2, “Pteridines useful as HCV inhibitors and methods for the preparation thereof” (Janssen Sciences Ireland UC, priority 2005, dated 2017)
# Read-outs that look alike come from different tables or passages of the source.
# What was measured:
# [1] = test system: HCV replicon (HCV type 1b) in Huh-7 luc/neo cells; experiment: Stable replicon cell reporter assay (Huh-Luc, luciferase readout); format: cell-based; conditions: Hepatitis C virus, Huh-7, 72 h, three days incubation, luciferase activity
# Excerpt: Stable Replicon Cell Reporter Assays:
# The compounds of the present invention are examined for activity in the inhibition of HCV RNA replication in a cellular assay. […] The cellular assay is based on a bicistronic expression construct, as described by Lohmann et al. (1999) Science vol. 285 pp. 110-113 with modifications described by Krieger et al. (2001) Journal of Virology 75: 4614-4624, in a multi-target screening strategy. In essence, the method is as follows.
# The assay utilizes the stably transfected cell line Huh-7 luc/neo (hereafter referred to as Huh-Luc). This cell line harbors an RNA encoding a bicistronic expression construct comprising the wild type NS3-NS5B regions of HCV type 1b translated from an Internal Ribosome Entry Site (IRES) from encephalomyocarditis virus (EMCV), preceded by a reporter portion (FfL-luciferase), and a selectable marker portion (neo^R, neomycine phosphotransferase). The construct is bordered by 5′ and 3′ NTRs (non-translated regions) from HCV type 1b. Continued culture of the replicon cells in the presence of G418 (neo^R) is dependent on the replication of the HCV RNA. The stably transfected replicon cells that express HCV RNA, which replicates autonomously and to high levels, encoding inter alia luciferase, are used for screening the antiviral compounds.
# Cellular Assay Experimental Method:
# The replicon cells are plated in 384 well plates in the presence of the test and control compounds which are added in various concentrations. Following an incubation of three days, HCV replication is measured by assaying luciferase activity (using standard luciferase assay substrates and reagents and a Perkin Elmer ViewLux™ ultraHTS microplate imager). Replicon cells in the control cultures have high luciferase expression in the absence of any inhibitor. The inhibitory activity of the compound on luciferase activity is monitored on the Huh-Luc cells, enabling a dose-response curve for each test compound.
# [2] = Pharmacokinetic profile after single oral administration: plasma, heart and liver levels; format: in vivo, male Swiss SPF (CD1)-mice
# Procedure: Compound nr. 21 was dissolved in a 10% hydroxypropyl-β-cyclodextrin (HP-β-CD) solution at a final concentration of 1 mg base-eq./ml, .pH 4.36.
# Three animals were administered orally the solution of compound nr. 21 to obtain a dose of 20 mg base-eq./kg. Blood samples were taken at 30 min, 1, 2, 4, 8 and 24 h after oral dose administration. Plasma was obtained following centrifugation at 4° C. for 10 minutes at approximately 1900×g.
# From each orally dosed animal individual samples of heart and liver were dissected and weighed. Tissue samples were homogenized in demineralized water.
# Plasma and tissue samples were analysed for compound nr. 21, using a qualified research LC-MS/MS method.
# A limited pharmacokinetic analysis was performed using WinNonlin™ Professional (Version 4.0.1). A non-compartmental analysis using the lin/log trapezoidal rule with lin/log interpolation was used for all data. The variability between animals is indicated by the standard deviation (st dev).
compound,measurement,setting,value
"Fc1ccc(Br)cc1-c1nc(Nc2ccncc2)c2nccnc2n1 [Compound 1, 2-(5-bromo-2-fluorophenyl)-4-(4-pyridylamino)pteridine]",EC50,[1],0.352 µM
"CN(c1ccncc1)c1nc(-c2cc(Br)ccc2F)nc2nccnc12 [Compound 2, 2-(5-bromo-2-fluorophenyl)-4-[(methyl)(4-pyridyl)amino]pteridine]",EC50,[1],3.65 µM
"CCCCN(c1ccncc1)c1nc(-c2cc(Br)ccc2F)nc2nccnc12 [Compound 3, 4-[(butyl)(4-pyridyl)amino]-2-(5-bromo-2-fluorophenyl)pteridine]",EC50,[1],2.2 µM
"CC(C)(C)CCN(c1ccncc1)c1nc(-c2cc(Br)ccc2F)nc2nccnc12 [Compound 4, 2-(5-bromo-2-fluorophenyl)-4-[(3,3-dimethylbutyl)(4-pyridyl)amino]pteridine]",EC50,[1],0.48 µM
"Fc1ccc(Br)cc1-c1nc(N(Cc2ccccc2)c2ccncc2)c2nccnc2n1 [Compound 5, 4-[(benzyl)(4-pyridyl)amino]-2-(5-bromo-2-fluorophenyl)pteridine]",EC50,[1],0.99 µM
"Cc1cnccc1Nc1nc(-c2cc(Br)ccc2N2CCCC2)nc2nccnc12 [Compound 6, 2-(5-Bromo-2-pyrrolidin-1-ylphenyl)-4-(3-methyl-4-pyridylamino)pteridine]",EC50,[1],18 µM
"Cc1cnccc1Nc1nc(-c2cc(Br)ccc2F)nc2nccnc12 [Compound 7, 2-(5-bromo-2-fluorophenyl)-4-(3-methyl-4-pyridylamino)pteridine]",EC50,[1],0.95 µM
"Fc1ccc(Br)cc1-c1nc(Nc2ccccc2)c2nccnc2n1 [Compound 8, 2-(5-bromo-2-fluorophenyl)-4-(phenylamino)pteridine]",EC50,[1],> 32 µM
"Cc1ccccc1Nc1nc(-c2cc(Br)ccc2F)nc2nccnc12 [Compound 9, 2-(5-bromo-2-fluorophenyl)-4-(2-tolylamino)pteridine]",EC50,[1],11 µM
"CN(c1ccccc1)c1nc(-c2cc(Br)ccc2F)nc2nccnc12 [Compound 10, 2-(5-bromo-2-fluorophenyl)-4-[(methyl)(phenyl)amino]pteridine]",EC50,[1],11 µM
"OCCNc1nc(-c2cc(Br)ccc2F)nc2nccnc12 [Compound 11, 2-(5-bromo-2-fluorophenyl)-4-(2-hydroxyethylamino)pteridine]",EC50,[1],> 32 µM
"Fc1ccc(Br)cc1-c1nc(N2CCN(c3ccccn3)CC2)c2nccnc2n1 [Compound 12, 2-(5-bromo-2-fluorophenyl)-4-[4-(2-pyridyl)piperazin-1-yl]pteridine]",EC50,[1],> 32 µM
"COC(=O)c1cnccc1Nc1nc(-c2cc(Br)ccc2F)nc2nccnc12 [Compound 13, 4-[[2-(5-Bromo-2-fluorophenyl)pteridin-4-yl]amino]nicotinic acid methyl ester]",EC50,[1],4.9 µM
"Fc1ccc(Br)cc1-c1nc(Nc2ccc(N3CCOCC3)cc2)c2nccnc2n1 [Compound 14, 2-(5-bromo-2-fluorophenyl)-4-(4-morpholinophenylamino)pteridine]",EC50,[1],8.7 µM
"Cc1cc(Nc2nc(-c3cc(Br)ccc3F)nc3nccnc23)ccn1 [Compound 15, 2-(5-bromo-2-fluorophenyl)-4-(2-methyl-4-pyridylamino)pteridine]",EC50,[1],3.56 µM
"Clc1cccc(-c2nc(Nc3ccncc3)c3nccnc3n2)c1 [Compound 18, 2-(3-chlorophenyl)-4-(4-pyridylamino)pteridine]",EC50,[1],1.5 µM
"Cc1cccc(-c2nc(Nc3ccncc3C)c3nccnc3n2)n1 [Compound 19, 2-(2-methyl-6-pyridyl)-4-[(3-methyl-4-pyridyl)amino]pteridine]",EC50,[1],12 µM
"O=C(NCCCN1CCCC1=O)c1cnccc1Nc1nc(-c2cc(Br)ccc2F)nc2nccnc12 [Compound 21, 4-[[2-(5-bromo-2-fluorophenyl)pteridin-4-yl]amino]-N-[3-(2-oxopyrrolidin-1-yl)propyl]nicotinamide]",EC50,[1],0.058 µM
same,AUC0-inf,"[2]; heart, 20 mg base-eq./kg oral",1262 ng·h/mL
same,AUC(0-8 h),"[2]; heart, 20 mg base-eq./kg oral",1119 ng·h/mL
same,Tmax,"[2]; heart, 20 mg base-eq./kg oral",0.5 h
same,t1/2 (2-8 h),"[2]; heart, 20 mg base-eq./kg oral",3.4 h
same,Cmax,"[2]; heart, 20 mg base-eq./kg oral (Table 4)",678 ng/mL
same,"Mean tissue level, heart","[2]; heart, time 24 h, 20 mg base-eq./kg oral, n=3, LLOQ between 5.00 and 13.16 ng/g",BQL^1)
same,AUC0-inf,"[2]; liver, 20 mg base-eq./kg oral",7973 ng·h/mL
same,AUC(0-8 h),"[2]; liver, 20 mg base-eq./kg oral",6965 ng·h/mL
same,Tmax,"[2]; liver, 20 mg base-eq./kg oral",0.5 h
same,t1/2 (2-8 h),"[2]; liver, 20 mg base-eq./kg oral",3.5 h
same,Cmax,"[2]; liver, 20 mg base-eq./kg oral (Table 4)",4057 ng/mL
same,"Mean tissue level, liver","[2]; liver, time 24 h, 20 mg base-eq./kg oral, n=3, LLOQ between 5.00 and 13.16 ng/g",BQL^1)
same,Cmax,"[2]; male, Swiss SPF (CD1), mouse, 20 mg/kg, heart, 0.5 h post dose, 20 mg base-eq./kg oral, read-out: Mean maximum tissue concentration (Cmax)",678 ng/g
same,Cmax,"[2]; male, Swiss SPF (CD1), mouse, 20 mg/kg, liver, 0.5 h post dose, 20 mg base-eq./kg oral, read-out: Mean maximum tissue concentration (Cmax)",4060 ng/g
same,concentration at 0.5 h,"[2]; male, Swiss SPF (CD1), mouse, plasma, time 0.5 h, 20 mg base-eq./kg oral, n=3, read-out: Mean plasma level",220 ng/mL
same,concentration at 1 h,"[2]; male, Swiss SPF (CD1), mouse, plasma, time 1 h, 20 mg base-eq./kg oral, n=3, read-out: Mean plasma level",166 ng/mL
same,concentration at 2 h,"[2]; male, Swiss SPF (CD1), mouse, plasma, time 2 h, 20 mg base-eq./kg oral, n=3, read-out: Mean plasma level",21.7 ng/mL
same,concentration at 4 h,"[2]; male, Swiss SPF (CD1), mouse, plasma, time 4 h, 20 mg base-eq./kg oral, n=3, read-out: Mean plasma level",20.3 ng/mL
same,concentration at 8 h,"[2]; male, Swiss SPF (CD1), mouse, plasma, time 8 h, 20 mg base-eq./kg oral, n=3, read-out: Mean plasma level",5.52 ng/mL
same,AUC0-inf,"[2]; plasma, 20 mg base-eq./kg oral",332 ng·h/mL
same,AUC(0-8 h),"[2]; plasma, 20 mg base-eq./kg oral",309 ng·h/mL
same,Cmax,"[2]; plasma, 20 mg base-eq./kg oral",220 ng/mL
same,Tmax,"[2]; plasma, 20 mg base-eq./kg oral",0.5 h
same,t1/2 (2-8 h),"[2]; plasma, 20 mg base-eq./kg oral",2.9 h
same,Mean plasma level,"[2]; plasma, time 24 h, 20 mg base-eq./kg oral, n=3, LLOQ 0.500 ng/ml",BQL^1)
"Fc1ccc(Br)cc1-c1nc(N(CCc2ccccc2)c2ccncc2)c2nccnc2n1 [Compound 22, 2-(5-bromo-2-fluorophenyl)-4-[(phenethyl)(4-pyridyl)amino]-pteridine]",EC50,[1],1.96 µM
"CCc1cnccc1Nc1nc(-c2cc(Cl)ccc2F)nc2nccnc12 [Compound 23, 2-(5-chloro-2-fluorophenyl)-4-(3-ethyl-4-pyridylamino)pteridine]",EC50,[1],0.52 µM
"Fc1ccc(Cl)cc1-c1nc(Nc2ccncc2)c2nccnc2n1 [Compound 24, 2-(5-chloro-2-fluorophenyl)-4-(4-pyridylamino)pteridine]",EC50,[1],0.78 µM
"Cc1cnccc1Nc1nc(-c2cc(Cl)ccc2F)nc2nccnc12 [Compound 25, 2-(5-chloro-2-fluorophenyl)-4-(3-methyl-4-pyridylamino)pteridine]",EC50,[1],0.48 µM
"FC(F)(F)c1cccc(-c2nc(Nc3ccncc3)c3nccnc3n2)c1 [Compound 26, 2-(3-trifluoromethylphenyl)-4-(4-pyridylamino)pteridine]",EC50,[1],2 µM
"Fc1cccc(-c2nc(Nc3ccncc3)c3nccnc3n2)c1 [Compound 27, 2-(3-fluorophenyl)-4-(4-pyridylamino)pteridine]",EC50,[1],3 µM
